{
  "source": "patent US11432549B2",
  "about": "“Carbamoyl triazolinone based herbicide combinations and method of use” (Arysta LifeScience Corporation, priority 2009, dated 2022)",
  "format_in_all_cases": "in vivo",
  "key": {"Cyperus esculentus": {"test_system": "Cyperus esculentus", "assay": "Ex 2 pre-emergence, visual % damage", "settings": "kg/ha: Amicarbazone 1.5, Clomazone/Hexazinone 2.0, mixture 1.5 + 2.0", "description": "DINAMIC® (amicarbazone) and Discover (clomazone 400 g/kg+hexazinone 100 g/kg) alone or in combination were applied pre-emergence in this study. The formulations for DINAMIC® and Discover were 700 g active ingredient a.i./kg and 500 g active ingredient a.i/kg respectively.\nThe herbicidal effect was observed by comparing the extent of Cyperus esculentus treated with the compounds against that occurring in similar non-treated control. Herbicidal effect was visually assessed and recorded at 27, 43, 46, 60, 63, 77, 83, 97 and 124 days after treatment (DAT). Damage by the herbicidal compositions was evaluated with reference to a scale of 0% to 100% in comparison with untreated control. 0% means no damage and 100% means complete destruction of the plants.\nThe theoretical herbicidal effect index were calculated based on Colby and the values were indicated in bracket ( ) in Table 2-1. The herbicidal mixtures (amicarbazone+(clomazone/hexazinone)) exert a greater herbicidal action than expected according to Colby on the basis of the observed effects of the individual components when used alone. […] The underlined values in the table indicate that the observed weed killing is greater than calculated from the Colby formula and therefore indicates a synergistic weed killing effect or activity."}, "Poa annua": {"test_system": "Poa annua", "assay": "Ex 5/7 greenhouse spray, bleaching/injury ratings", "protocol": "Containers were watered as needed based on species and water usage. The greenhouse was heated to keep temperatures above 50° F. (10° C.) and ventilated as needed to keep temperatures below 100° F. (38° C.). Typical daytime temperatures in the greenhouse were 80-90° F. (27-32° C.) and nighttime temperatures were between 50-60° F. (10-16° C.). The soil employed was Promix BX potting soil. Overall moisture conditions were normal and the closest weather station was on-site. Conditions and equipment employed in this Example are tabulated below in Tables 5-1 and 5-2.\nAll containers were moved outdoors from the greenhouse and arranged in blocks by treatment for the herbicide applications. A single spray application was applied to each block containing four repetitions of each species for each treatment. Plants were then immediately returned to the greenhouse and irrigated with approximately ¼″ water 1-3 hrs after treatment with a hose end sprayer. Only the Poa plants were trimmed with scissors two days prior to treatment at a height of approximately 3 inches.\nTransplanted tillering Kentucky Bluegrass was 5 to 6 months old, transplanted Poa annua was 5 to 6 months old. Tall fescue was seeded into the crabgrass pots. St. Augustine plants (Floratam and Saphire) were shipped from Port St. Lucie, Fla. Only two replicates of Saphire St. Augustine grass were used due to plant availability.\nReferring to FIGS. 2A-B, 3A-C, 4A-C, and 5A-D, all ratings of injury or bleaching are based on a scale from 1 to 9. […] Any bleaching measurement 4 and above was considered unacceptable for desirable turf species. In injury measurements, 1 indicates no injury while 9 indicates a dead plant. Any injury measurement 4 and above was considered unacceptable for desirable turf species). Density correlates with percent cover where 1 indicates no grass while 9 indicates a full pot.\nReplications employed include 4, Untreated treatments: 1, Design: Randomized Complete Block, Treatment units: US standard, Treated plot size Width: 4 feet, Treated plot size Length: 4 feet, Application volume: 50 gal/ac, Mix size: 0.5562 liters, Mix overage: 100%, Format definitions: G-All7.DEF, G-All7.FRM.\nIn evaluating synergism, the data from Example 5 above were converted to % of control. This was done based on the data provided on a 1-9 scale detailed in Example 5. Expected values were computed from the % of control data by the formula for expected control=[…], where A is the % of control value for herbicide A alone and B is the % of control value for herbicide B alone."}, "[1]": {"test_system": "Croton glandulosus (CROTON)", "assay": "Ex 4 pre-emergence, visual % damage", "settings": "kg/ha or L/ha: Amicarbazone 1.50, Gesapax 5.00, Karmex 5.00, Provence 0.20, Sencor 3.50, alone", "protocol": "DINAMIC® (amicarbazone) in combination of various herbicides listed in Table 4-1 were tested for herbicidal activity.\nThe herbicidal effect was observed by comparing the extent of Croton glandulosus (CROTON) treated with the compounds against that occurring in similar non-treated control. Herbicidal effect was visually assessed and recorded at 14, 23, 36, 49, 65 and 77 days after treatment (DAT). Damage by the herbicidal compositions was evaluated with reference to a scale of 0% to 100% in comparison with untreated control. 0% means no damage and 100% means complete destruction of the plants. […] The theoretical herbicidal effect index were calculated based on Colby and the values were indicated in bracket (2). Some of the observed herbicidal effects were the same as the theoretical hervicidal effects, which indicate additive effects. The underlined values in the table indicate that the observed weed killing is greater than calculated from the Colby formula and therefore indicates a synergistic weed killing effect or activity."}, "Digitaria ciliaris": {"test_system": "Digitaria ciliaris", "assay": "Ex 1 pot test, visual % damage"}, "[2]": {"settings": "rating 1, 0.022 lbs ai/A (0.5 oz/A)"}, "[3]": {"settings": "rating 1, 0.13 lbs ai/A (3 oz/A)"}, "[4]": {"settings": "rating 2, 0.022 lbs ai/A (0.5 oz/A)"}, "[5]": {"settings": "rating 2, 0.13 lbs ai/A (3 oz/A)"}, "[6]": {"settings": "rating 3, 0.022 lbs ai/A (0.5 oz/A)"}, "[7]": {"settings": "rating 3, 0.13 lbs ai/A (3 oz/A)"}, "[8]": {"settings": "rating 4, 0.022 lbs ai/A (0.5 oz/A)"}, "[9]": {"settings": "rating 4, 0.13 lbs ai/A (3 oz/A)"}},
  "data": [
    {"smiles": "CC(C)c1nn(C(=O)NC(C)(C)C)c(=O)n1N", "note": "[Amicarbazone, 4-amino-5-isopropyl-2-(tert-butyl-aminocarbonyl)-2,4-dihydro-3H-1,2,4-triazol-3-one]", "values": [
      {"measurement": "percentage control", "setting": "Cyperus esculentus; Trial 1, 43 DAT", "value": 40, "unit": "%"},
      {"measurement": "percentage control", "setting": "Cyperus esculentus; Trial 1, 63 DAT", "value": 62, "unit": "%"},
      {"measurement": "percentage control", "setting": "Cyperus esculentus; Trial 1, 77 DAT", "value": 65, "unit": "%"},
      {"measurement": "percentage control", "setting": "Cyperus esculentus; Trial 2, 27 DAT", "value": 37, "unit": "%"},
      {"measurement": "percentage control", "setting": "Cyperus esculentus; Trial 2, 46 DAT", "value": 53, "unit": "%"},
      {"measurement": "percentage control", "setting": "Cyperus esculentus; Trial 2, 60 DAT", "value": 57, "unit": "%"},
      {"measurement": "percentage control", "setting": "Cyperus esculentus; Trial 2, 83 DAT", "value": 68, "unit": "%"},
      {"measurement": "percentage control", "setting": "Cyperus esculentus; Trial 2, 97 DAT", "value": 53, "unit": "%"},
      {"measurement": "percentage control", "setting": "Cyperus esculentus; Trial 2, 124 DAT", "value": 23, "unit": "%"},
      {"measurement": "control of annual bluegrass", "setting": "Poa annua; high rate, by itself", "value": "reasonable control"},
      {"measurement": "Annual bluegrass bleaching", "setting": "Poa annua; [2]", "value": "100 % of control"},
      {"measurement": "Annual bluegrass injury", "setting": "Poa annua; [2]", "value": "104 % of control"},
      {"measurement": "Annual bluegrass bleaching", "setting": "Poa annua; [3]", "value": "100 % of control"},
      {"measurement": "Annual bluegrass injury", "setting": "Poa annua; [3]", "value": "71 % of control"},
      {"measurement": "Annual bluegrass bleaching", "setting": "Poa annua; [4]", "value": "100 % of control"},
      {"measurement": "Annual bluegrass injury", "setting": "Poa annua; [4]", "value": "104 % of control"},
      {"measurement": "Annual bluegrass bleaching", "setting": "Poa annua; [5]", "value": "100 % of control"},
      {"measurement": "Annual bluegrass injury", "setting": "Poa annua; [5]", "value": "61 % of control"},
      {"measurement": "Annual bluegrass bleaching", "setting": "Poa annua; [6]", "value": "100 % of control"},
      {"measurement": "Annual bluegrass injury", "setting": "Poa annua; [6]", "value": "108 % of control"},
      {"measurement": "Annual bluegrass bleaching", "setting": "Poa annua; [7]", "value": "91 % of control"},
      {"measurement": "Annual bluegrass injury", "setting": "Poa annua; [7]", "value": "67 % of control"},
      {"measurement": "Annual bluegrass bleaching", "setting": "Poa annua; rating 4/2, 0.022 lbs ai/A (0.5 oz/A)", "value": "100 % of control"},
      {"measurement": "Annual bluegrass bleaching", "setting": "Poa annua; rating 4/2, 0.13 lbs ai/A (3 oz/A)", "value": "88 % of control"},
      {"measurement": "Annual bluegrass bleaching", "setting": "Poa annua; [8]", "value": "107 % of control"},
      {"measurement": "Annual bluegrass injury", "setting": "Poa annua; [8]", "value": "96 % of control"},
      {"measurement": "Annual bluegrass bleaching", "setting": "Poa annua; [9]", "value": "94 % of control"},
      {"measurement": "Annual bluegrass injury", "setting": "Poa annua; [9]", "value": "53 % of control"},
      {"measurement": "Annual bluegrass injury", "setting": "Poa annua; rating 5, 0.022 lbs ai/A (0.5 oz/A)", "value": "90 % of control"},
      {"measurement": "Annual bluegrass injury", "setting": "Poa annua; rating 5, 0.13 lbs ai/A (3 oz/A)", "value": "52 % of control"},
      {"measurement": "Annual bluegrass injury", "setting": "Poa annua; rating 6, 0.022 lbs ai/A (0.5 oz/A)", "value": "85 % of control"},
      {"measurement": "Annual bluegrass injury", "setting": "Poa annua; rating 6, 0.13 lbs ai/A (3 oz/A)", "value": "31 % of control"},
      {"measurement": "Annual bluegrass injury", "setting": "Poa annua; rating 7, 0.022 lbs ai/A (0.5 oz/A)", "value": "85 % of control"},
      {"measurement": "Annual bluegrass injury", "setting": "Poa annua; rating 7, 0.13 lbs ai/A (3 oz/A)", "value": "24 % of control"},
      {"measurement": "percentage control", "setting": "[1]; 14 DAT", "value": 100, "unit": "%"},
      {"measurement": "percentage control", "setting": "[1]; 23 DAT", "value": 99, "unit": "%"},
      {"measurement": "percentage control", "setting": "[1]; 36 DAT", "value": 99, "unit": "%"},
      {"measurement": "percentage control", "setting": "[1]; 49 DAT", "value": 99, "unit": "%"},
      {"measurement": "percentage control", "setting": "[1]; 65 DAT", "value": 99, "unit": "%"},
      {"measurement": "percentage control", "setting": "[1]; 77 DAT", "value": 99, "unit": "%"},
      {"measurement": "herbicide effect", "setting": "Digitaria ciliaris; 50 g/ha and 100 g/ha, one-leaf stage", "value": "small"},
      {"measurement": "percentage control", "setting": "Digitaria ciliaris; single application 50 g/ha, 5 DAT", "value": 24, "unit": "%"},
      {"measurement": "percentage control", "setting": "Digitaria ciliaris; single application 50 g/ha, 8 DAT", "value": 38, "unit": "%"},
      {"measurement": "percentage control", "setting": "Digitaria ciliaris; single application 50 g/ha, 14 DAT", "value": 34, "unit": "%"},
      {"measurement": "percentage control", "setting": "Digitaria ciliaris; single application 50 g/ha, 21 DAT", "value": 34, "unit": "%"},
      {"measurement": "percentage control", "setting": "Digitaria ciliaris; single application 50 g/ha, 28 DAT", "value": 26, "unit": "%"},
      {"measurement": "percentage control", "setting": "Digitaria ciliaris; single application 100 g/ha, 5 DAT", "value": 70, "unit": "%"},
      {"measurement": "percentage control", "setting": "Digitaria ciliaris; single application 100 g/ha, 8 DAT", "value": 78, "unit": "%"},
      {"measurement": "percentage control", "setting": "Digitaria ciliaris; single application 100 g/ha, 14 DAT", "value": 82, "unit": "%"},
      {"measurement": "percentage control", "setting": "Digitaria ciliaris; single application 100 g/ha, 21 DAT", "value": 74, "unit": "%"},
      {"measurement": "percentage control", "setting": "Digitaria ciliaris; single application 100 g/ha, 28 DAT", "value": 66, "unit": "%"},
      {"measurement": "percentage control", "setting": "Digitaria ciliaris; single application 200 g/ha, 5 DAT", "value": 92, "unit": "%"},
      {"measurement": "percentage control", "setting": "Digitaria ciliaris; single application 200 g/ha, 8 DAT", "value": 96, "unit": "%"},
      {"measurement": "percentage control", "setting": "Digitaria ciliaris; single application 200 g/ha, 14 DAT", "value": 98, "unit": "%"},
      {"measurement": "percentage control", "setting": "Digitaria ciliaris; single application 200 g/ha, 21 DAT", "value": 86, "unit": "%"},
      {"measurement": "percentage control", "setting": "Digitaria ciliaris; single application 200 g/ha, 28 DAT", "value": 86, "unit": "%"}
    ]}
  ]
}
